Data set [1] in a line: Biodistribution by microPET/CT imaging in C57BL6 mice. The note with it: 1 h post-injection, microPET. Format: in vivo.
The nature of data set [2]: Dosimetry: mouse microPET biodistribution extrapolated to humans. To be noted: for effective dose: administered activity of 200 MBq. Format: in vivo, C57BL6 mice.
Data set [3] can be described thus: Stability of the final product in formulation. Format: physicochemical. The note with it: 3 h; buffered solution at pH 6.8.
Data set [4] in a line: In-vitro stability in mouse blood plasma. To be noted: 2 h, 37 °C. Format: in vitro ADME.
The nature of data set [5]: In-vitro stability in human blood plasma. It counts as in vitro ADME. To be noted: 2 h, 37 °C.
Data set [6] relates to LNCaP cells. To be noted: complexed to natGa; cited from earlier work.
The target in data set [7] is PSMA. To be noted: read-out: Ki value towards PSMA; complexed to natGa; cell-based assay; cited from earlier work.

Molecules are shown by their SMILES. Values joined by “and” are separate entries in the source; they are usually repeats but may differ in a detail not shown here. Equal values may be shown once.

One may read the Ki as a dissociation constant, usually derived from enzyme kinetics or from competition with a known ligand.

Take `O=C([O-])CN(CCN(CC(=O)[O-])Cc1cc(CCC(=O)NCCCCCC(=O)NCCCC[C@H](NC(=O)N[C@@H](CCC(=O)O)C(=O)O)C(=O)O)ccc1O)Cc1cc(CCC(=O)O)ccc1O.[18F-].[Al+3]` [18F-PSMA-11]: in data set [1], the “tissue uptake, bladder” value was 77.4 ± 39.1 %ID/g. For the same molecule, in data set [1], the “tissue uptake, kidneys” value came to 119.3 ± 16.5 %ID/g. Besides, the “Mean RT (time-integrated activity coefficient) scaled to humans” value in data set [2] (Bone, Method 1) was 0.045 ± 0.013 h; in data set [2] (Bone, Method 2), 0.114 ± 0.028 h; in data set [2] (Muscle, Method 2), 0.077 ± 0.018 h; in data set [2] (Tot. Kidney, Method 1), 0.141 ± 0.033 h; in data set [2] (Tot. Kidney, Method 2) it was 0.042 ± 0.009 h. The “mean extrapolated effective dose per unit activity” value in data set [2] (Method 1) was 8.59 × 10^−3 ± 7.46 × 10^−4 mSv/MBq; in data set [2] (second value, printed Method 1), 6.23 × 10^−3 ± 5.74 × 10^−4 mSv/MBq. The effective dose is 1.72 mSv and 1.7 mSv in data set [2] (Method 1); 1.25 mSv in data set [2] (Method 2). Besides, in data set [2] (Method 2, kidneys dose-limiting, 21CFR361.1), the “maximum administered human activity limit” value is recorded as 1,742 MBq. In addition, the feasible injected activities entry in data set [2] (most stringent dosimetric calculations) is “up to 0.56 GBq”. Besides, the “radiochemical purity in stability test” value in data set [3] is recorded as over 97%. Moreover, the intact compound in data set [4] came to 91%; in data set [5], 94%.
Regarding `O=C(O)CCc1ccc(O)c(CN(CCN(CC(=O)O)Cc2cc(CCC(=O)NCCCCCC(=O)NCCCC[C@H](NC(=O)N[C@@H](CCC(=O)O)C(=O)O)C(=O)O)ccc2O)CC(=O)O)c1` [PSMA-11, Glu-urea-Lys (Ahx)-HBED-CC], the “uptake in PSMA-positive LNCaP cells” value in data set [6] is “readily taken up”. For the same molecule, in data set [7], the inhibitory constant (Ki) is 0.012 ± 0.0028 µM.

Values taken from PMC5050145 (European journal of nuclear medicine and molecular imaging, 2016).
